Test results: ChEMBL document CHEMBL1201862, “PubChem BioAssay data set” (2004)
The source made the active and inactive calls.

How the values were obtained:
[1] = HIV-1 AD8 envelope cell-cell fusion blockers – cherry-pick, dose response (AID 652062); assay type: functional, cell-based;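 also: luciferase signal from cell-cell fusion driven by HIV-1 clade B AD8 Env; potency is for inhibitors of fusion seen as a drop in luminescence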
[2] = Trypanosoma cruzi growth suppression in host cells – NIH3T3 host cells, beta-gal luminescence, confirmation (AID 2044); assay type: functional, cell-based;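 also: intracellular parasites grown in NIH/3T3 mouse fibroblasts as host cells; luminescent beta-galactosidase reporter signal from transgenic T. cruzi replicating inside host cells; inhibitors lower the luminescence signal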
[3] = off-target signal loss in HeLa-CEM21 co-culture – HeLa F-luc CTL cells, cherry-picked, counter-screen for HIV-1 Env fusion inhibitor project, dose response (AID 652040); assay type: functional, cell-based;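 also: potency for signal decrease marking cytotoxic or nonspecific inhibition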
[4] = blockers of HIV-1 ZM109 envelope-driven cell-cell fusion – HeLa effector, CEM target cells, luciferase, cherry-pick, dose response (AID 652058); assay type: functional, cell-based;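 also: luciferase signal from HIV-1 Env mediated cell-cell fusion of effector and target cells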
[5] = NIH3T3 cell viability loss – ATP luminescence, mouse fibroblasts, counter-screen, dose response (AID 2010); assay type: functional, cell-based;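 also: cells exposed to compound for about 90 hours before reading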
[6] = blockers of HIV-1 envelope-mediated cell-cell fusion – cherry-pick, dose response (AID 652057); assay type: functional, cell-based
[7] = NIH-3T3 fibroblast cytotoxicity, dose response, cytotoxicity control, cell-based, fluorescence, Alamar Blue, secondary assay (AID 2327); assay type: functional;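 also: NIH-3T3 mouse fibroblasts cultured with fluconazole at 8 µg/mL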
[8] = fluconazole-exposed Candida albicans growth modulators – fluorescence, retest, confirmation (AID 2467); assay type: functional, cell-based
[9] = tested on: Streptococcus; assay: GAS UMAA2166 growth inhibition – luminescence, BacTiterGlo, counter-screen for streptokinase expression inhibitor project, dose response (AID 1915); assay type: functional, organism-based;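 also: potency for reduction of bacterial viability or growth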
[10] = target: ATP-dependent molecular chaperone HSP82 (Candida albicans (strain WO-1) (Yeast), UniProt C4YTQ8); assay: steroid-induced GRE reporter decrease in yeast – S. cerevisiae, luminescence, Hsp90 inhibitor project, dose response (AID 2400); assay type: functional, cell-based;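 also: beta-galactosidase luminescence from glucocorticoid response element reporter as proxy for Hsp90 function; inhibitor potency where signal loss means Hsp90 inhibition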
[11] = target: T1, Leucine aminopeptidase (Plasmodium falciparum 3D7, UniProt Q8IL11); assay: P. falciparum M17LAP inhibitors, primary screen, biochemical, fluorogenic H-Leu-NHMec substrate, 1536-well (AID 1619); assay type: functional
T1 sequence (Q8IL11 whole entry): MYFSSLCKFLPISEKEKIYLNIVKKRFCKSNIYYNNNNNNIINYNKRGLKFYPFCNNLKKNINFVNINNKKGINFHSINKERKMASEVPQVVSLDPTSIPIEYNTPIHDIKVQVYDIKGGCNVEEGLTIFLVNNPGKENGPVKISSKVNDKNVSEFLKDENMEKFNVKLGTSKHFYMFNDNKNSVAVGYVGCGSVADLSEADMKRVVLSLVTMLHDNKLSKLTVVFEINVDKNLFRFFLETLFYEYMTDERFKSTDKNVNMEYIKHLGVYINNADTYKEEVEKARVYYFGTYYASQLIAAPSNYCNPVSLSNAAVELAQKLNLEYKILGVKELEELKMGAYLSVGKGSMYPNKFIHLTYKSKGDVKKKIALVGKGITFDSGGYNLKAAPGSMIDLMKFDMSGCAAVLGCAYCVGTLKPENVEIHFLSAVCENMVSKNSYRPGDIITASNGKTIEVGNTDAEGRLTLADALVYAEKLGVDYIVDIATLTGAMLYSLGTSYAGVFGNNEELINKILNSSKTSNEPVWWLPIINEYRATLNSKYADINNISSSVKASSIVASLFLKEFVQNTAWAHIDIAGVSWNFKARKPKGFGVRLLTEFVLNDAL

[12] = target: T2, Cytochrome P450 1A2 (Homo sapiens, UniProt P05177);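 also: PubChem cytochrome P450 panel assay, CYP1A2 panel member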
T2 sequence (P05177 whole entry): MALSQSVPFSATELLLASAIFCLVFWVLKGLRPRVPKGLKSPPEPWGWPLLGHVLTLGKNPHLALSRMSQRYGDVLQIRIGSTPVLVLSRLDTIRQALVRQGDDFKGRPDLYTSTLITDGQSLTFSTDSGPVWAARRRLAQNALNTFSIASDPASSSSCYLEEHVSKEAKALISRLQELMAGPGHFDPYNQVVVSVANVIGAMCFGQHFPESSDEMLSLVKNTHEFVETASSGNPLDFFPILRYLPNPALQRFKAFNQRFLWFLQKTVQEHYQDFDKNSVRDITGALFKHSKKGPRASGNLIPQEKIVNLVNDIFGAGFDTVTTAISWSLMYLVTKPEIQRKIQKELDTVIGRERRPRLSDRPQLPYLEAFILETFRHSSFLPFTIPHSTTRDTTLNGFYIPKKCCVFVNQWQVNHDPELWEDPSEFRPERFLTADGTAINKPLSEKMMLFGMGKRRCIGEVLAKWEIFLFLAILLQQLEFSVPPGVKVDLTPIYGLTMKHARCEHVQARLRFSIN

[13] = tested on: Streptococcus sp. 'group A'; assay: Streptococcus pyogenes SK(-)GAS viability under kanamycin – luminescence, BacTiterGlo, confirmation, counter-screen for streptokinase expression inhibitor project, dose response (AID 1900); assay type: functional, organism-based
[14] = target: T3, Serine/threonine-protein phosphatase (Candida dubliniensis (strain CD36 / CBS 7987 / NCPF 3949 / NRRLY-17841) (Yeast), UniProt B9W6M3); assay: blockers of CaCl2-induced CDRE-lacZ signaling – S. cerevisiae, luminescence, secondary, dose response (AID 2388); assay type: functional, cell-based;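 also: yeast reporter cells carrying a calcineurin-responsive lacZ construct stimulated with calcium chloride; luminescent beta-galactosidase reporter signal in whole cells rather than isolated phosphatase activity; potency for inhibition where a drop in reporter signal means calcineurin blockade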
T3 sequence (B9W6M3 whole entry): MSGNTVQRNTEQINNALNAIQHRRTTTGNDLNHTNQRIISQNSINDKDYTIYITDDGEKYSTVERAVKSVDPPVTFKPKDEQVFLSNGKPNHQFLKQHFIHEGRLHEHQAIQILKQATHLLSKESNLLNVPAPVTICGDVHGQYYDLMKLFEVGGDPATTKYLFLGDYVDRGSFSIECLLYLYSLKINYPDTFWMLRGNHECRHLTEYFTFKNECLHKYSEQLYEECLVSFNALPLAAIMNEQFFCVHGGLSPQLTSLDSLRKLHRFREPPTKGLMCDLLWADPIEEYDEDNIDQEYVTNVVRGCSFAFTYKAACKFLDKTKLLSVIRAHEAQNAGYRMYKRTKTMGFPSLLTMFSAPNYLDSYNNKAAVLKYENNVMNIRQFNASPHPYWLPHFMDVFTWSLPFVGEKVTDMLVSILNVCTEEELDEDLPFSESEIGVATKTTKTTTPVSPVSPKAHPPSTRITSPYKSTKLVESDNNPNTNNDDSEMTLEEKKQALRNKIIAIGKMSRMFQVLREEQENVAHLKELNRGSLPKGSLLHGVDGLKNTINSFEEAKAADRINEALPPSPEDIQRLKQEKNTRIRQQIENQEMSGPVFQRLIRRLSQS

[15] = target: T4, Corticotropin-releasing factor receptor 2/Corticotropin-releasing factor-binding protein (Homo sapiens, UniProt P24387+Q13324); assay: activators of CRF receptor 2 with binding protein – uHTS hits, confirmation (AID 602473); assay type: functional; details: read-out: EC50_Mean
T4 sequence (Q13324 whole entry): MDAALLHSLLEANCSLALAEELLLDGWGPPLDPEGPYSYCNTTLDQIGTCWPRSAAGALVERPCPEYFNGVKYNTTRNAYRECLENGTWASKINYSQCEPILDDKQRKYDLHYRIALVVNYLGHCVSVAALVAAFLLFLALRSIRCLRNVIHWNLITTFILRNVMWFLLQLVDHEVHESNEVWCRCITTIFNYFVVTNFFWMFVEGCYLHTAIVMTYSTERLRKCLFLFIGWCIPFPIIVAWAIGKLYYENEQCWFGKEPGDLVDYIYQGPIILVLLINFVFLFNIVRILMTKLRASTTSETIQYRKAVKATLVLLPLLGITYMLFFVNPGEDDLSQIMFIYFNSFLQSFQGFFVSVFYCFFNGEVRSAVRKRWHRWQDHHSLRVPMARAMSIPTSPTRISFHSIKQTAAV
T4 sequence (P24387 whole entry): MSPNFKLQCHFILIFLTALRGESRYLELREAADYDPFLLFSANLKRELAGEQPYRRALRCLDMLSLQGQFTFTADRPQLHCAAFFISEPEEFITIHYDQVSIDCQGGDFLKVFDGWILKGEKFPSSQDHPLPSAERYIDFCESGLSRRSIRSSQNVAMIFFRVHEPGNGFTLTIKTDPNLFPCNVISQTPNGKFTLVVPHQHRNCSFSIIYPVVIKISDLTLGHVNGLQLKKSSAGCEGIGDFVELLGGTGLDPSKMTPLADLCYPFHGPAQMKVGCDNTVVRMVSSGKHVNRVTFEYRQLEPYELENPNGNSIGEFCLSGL

[16] = target: T4, Corticotropin-releasing factor receptor 2/Corticotropin-releasing factor-binding protein; assay: Dose Response confirmation of uHTS hits for small molecule antagonists of the CRF-binding protein and CRF-R2 receptor complex.; assay type: functional; details: read-out: IC50_Mean
[17] = blockers of CRF-binding protein–CRF-R2 complex – cell-based, uHTS hits, 384-well, dose response (AID 651639); assay type: functional, Homo sapiens; details: read-out: IC50_Mean
[18] = DRD fibroblast viability loss – cell-based, non-viral oncogenic, luminescence, dose response (AID 1934); assay type: functional; details: Homo sapiens
[19] = tested on: BJ; assay: BJ-TERT-LT-ST fibroblast viability loss – cell-based, RAS-independent, luminescence, dose response (AID 1935); assay type: functional; details: Homo sapiens;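 also: BJ fibroblasts immortalized with TERT plus LT and ST oncogenes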
[20] = tested on: BJ; assay: BJ-TERT fibroblast viability loss – cell-based, RAS-independent, luminescence, dose response (AID 1933); assay type: functional; details: Homo sapiens
[21] = tested on: BJ; assay: cells; assay type: functional, cell-based; details: Homo sapiens

Sequence of ATP-dependent molecular chaperone HSP82 (C4YTQ8 whole entry): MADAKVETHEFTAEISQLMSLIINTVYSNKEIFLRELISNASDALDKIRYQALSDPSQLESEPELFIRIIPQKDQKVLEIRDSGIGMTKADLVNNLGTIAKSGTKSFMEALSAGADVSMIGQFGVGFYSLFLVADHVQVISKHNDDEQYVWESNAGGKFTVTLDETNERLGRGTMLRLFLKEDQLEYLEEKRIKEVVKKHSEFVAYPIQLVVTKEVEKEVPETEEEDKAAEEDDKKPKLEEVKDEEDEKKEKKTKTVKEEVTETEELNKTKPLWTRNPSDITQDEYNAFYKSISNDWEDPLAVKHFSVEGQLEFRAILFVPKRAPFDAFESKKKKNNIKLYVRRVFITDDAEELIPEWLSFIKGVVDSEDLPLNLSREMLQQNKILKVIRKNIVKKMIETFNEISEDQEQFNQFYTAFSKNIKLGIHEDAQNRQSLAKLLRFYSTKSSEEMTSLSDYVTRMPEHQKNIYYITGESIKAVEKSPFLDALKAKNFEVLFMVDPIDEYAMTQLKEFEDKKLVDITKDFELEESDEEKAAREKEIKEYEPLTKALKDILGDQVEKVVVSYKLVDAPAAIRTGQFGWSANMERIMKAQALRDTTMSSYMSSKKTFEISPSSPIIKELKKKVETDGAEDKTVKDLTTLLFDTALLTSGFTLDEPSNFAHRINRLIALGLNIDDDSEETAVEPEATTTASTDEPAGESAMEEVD

Compound	AC50 [1]	AC50 [3]	AC50 [4]	AC50 [6]	EC50 [7]	EC50 [8]	EC50 [15]	IC50 [16]	IC50 [17]	also measured
CCN(C1CCCCC1)S(=O)(=O)c1ccc(S(=O)(=O)N(CC(=O)Nc2ccccc2)C2CC2)cc1	7.31 µM (active)	27.9 µM (active)	6.25 µM (active)	4.9 µM (active)	–	–	–	–	–	EC50 [2]: 1.93 µM (active); EC50 [5]: > 60 µM (not active)
O=C(NC1CCCCC1)C(c1ccc(Cl)cc1)N(C(=O)c1cnccn1)c1ccc2c(c1)OCO2 (stereo unspecified)	1.95 µM (active)	7.12 µM (active)	2.47 µM (active)	3.15 µM (active)	> 150 µM (inactive)	> 38 µM (not active)	–	–	–	–
O=C(CCc1ccccc1)NNC(=S)NC(=O)c1ccccc1	–	–	–	–	> 150 µM (inactive)	1.01 µM (active)	–	–	–	EC50 [9]: 5.07 µM (active); EC50 [10]: 16.4 µM (active); IC50 [11]: 41.3 µM (active); AC50 [12]: 14.1 µM (inconclusive); EC50 [13]: 1.27 µM (active); EC50 [14]: 19.2 µM (active)
CC1CCc2c(sc3ncnc(N4CCOCC4)c23)C1 (stereo unspecified)	4.54 µM (active)	20.8 µM (active)	0.858 µM (active)	22.5 µM (active)	> 160 µM (inactive)	> 38 µM (not active)	–	–	–	–
O=C(Nc1cc(S(=O)(=O)N2CCCCC2)ccc1N1CCCCC1)C1CC1	–	–	–	–	–	–	> 53 µM (inactive)	< 0.368 µM (active)	> 20 µM (inactive)	–
COc1ccc(C(=O)/C(C#N)=N/Nc2ccccc2[N+](=O)[O-])cc1	–	–	–	–	–	–	> 53 µM (inactive)	4.66 µM (active)	11 µM (active)	EC50 [18]: 2.84 µM (active); EC50 [19]: 21.5 µM (inconclusive); EC50 [20]: 10.7 µM (active); EC50 [21]: 19.4 µM (inconclusive)
